From patent US20240423973A1, “COMPOUNDS, PHARMACEUTICAL COMPOSITIONS, AND METHODS FOR THE TREATMENT, PREVENTION, OR MANAGEMENT OF HYPERPROLIFERATIVE DISORDERS” (VINCERX PHARMA GMBH, priority 2021, published 2024)
pIC50: −log10 of the molar value. *1 amine or outer side, *2 acyl side, *3 side chain or, on linkers, in order; H or OH if unused. Where a SMILES comes first, the peptide text is derived from it. [ ]: non-standard residue; d: D form. The star is where a group is joined. X1 = CCCNC(=O)Nc1cccc(S(=O)(=O)Nc2cccc([C@@H](CC(=O)O)NC(=O)Nc3ccc(N*)cc3)c2)c1; Camptothecin(7-Et) = CCc1c2c(nc3ccccc13)-c1cc3c(c(=O)n1C2)COC(=O)[C@@]3(CC)O*; CO = O=C([*:1])[*:2]; Sar = CNCC(=O)O

Experiments:
786-O [1] = test: Cytotoxicity in vitro in the presence and absence of elastase (MTT assay); assay type: cell-based, human; settings: 786-O cells, 72 h
Outline: (§1)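 Following a 24 h attachment period, cultures got fresh medium plus compound (10^−5–10^−13 M), with or without 10 nM elastase. After 72 h at 37 °C under 5% CO2, MTT (4 h) and overnight detergent lysis preceded a 570 nm read, scaled to untreated cells.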

HT29 [2] = test: as above; assay type: cell-based, human; settings: HT29 cells, 72 h
Outline: as §1

NCI H292 [3] = test: as above; assay type: cell-based, human; settings: NCI H292 cells, 72 h
Outline: as §1

SUM149 [4] = test: as above; assay type: cell-based; settings: SUM149 cells, 72 h
Outline: as §1

[5] = Compound stability in rat plasma; assay type: in vitro ADME; settings: rat plasma at 37° C., 4-hour assay; for ester cleavage in rat plasma: detected by LC-MS
Description: (§2) Compound B1, Compound C2, and Compound C3 were evaluated for stability in plasma and/or buffer. Compound B1 was stable in rat plasma at 37° C. (FIG. 1 panel (a)) and in buffer at pH 7.4 (FIG. 1 panel (b)) for the duration of the 4-hour assay.
Method for measurement of stability in rat and human plasma: 1 mg of the test compound is dissolved in 0.5 ml acetonitrile/dimethylsulfoxide 1:1. For complete dissolution the HPLC vial is shaken and sonicated. While vortexing 20 μl of this solution are added to 1 ml 37° C. warm plasma. After 0.17, 0.5, 1, 1.5, 2 and 4 hours the enzymatic reaction is stopped by adding 100 μl of the compound plasma solution to a vial containing 300 μl acetonitrile/buffer pH3 (80:20) at RT. The mixture is centrifuged at 5000 rpm for 10 minutes. The supernatant is analyzed by HPLC to determine the amount of the test compound and up to two byproducts. To values result from a processed sample immediately taken after vortexing with plasma at RT. The peak areas (in percentage) are used for quantification. All data is given as percent area of the initial compound at to.

[6] = Compound stability in buffer; assay type: physicochemical; settings: for release of free payload in buffer: buffer at pH 4, within 24 hours
Description: as §2
Method for measurement of stability in buffer: 0.15 mg of the test compound are solved in 0.1 ml dimethylsulfoxide and 0.4 ml acetonitrile. For complete dissolution the HPLC vial with the sample solution is shaken and sonicated. Then 1.0 ml of the respective buffer solution is added, and the sample is vortexed. The sample solution is analysed by HPLC to determine the amount of the test compound and up to two byproducts at a particular time over a period of 24 h at 37° C. to values result from a sample immediately taken after vortexing with buffer at RT. The peak areas (in percentage) are used for quantification.

786-O [7] = test: Cytotoxicity assay (Version 2), automated, AC50; assay type: cell-based, human; settings: 786-O cells, Version 2, activity concentration at -50%, 4 parameter Hill-fit
Description: (§3) Cultivation of cells was performed according to standard procedures with the media recommended by the provider. The cells, in a total volume of 100 μL, were seeded in a 96-well plate with a white bottom (#3610). After a 24 h incubation period at 37° C. and 5% CO2, the medium was exchanged by adding 90 μL fresh medium. The treatment started by adding the test compound in 10 μL of culture medium to the cells in triplicates. Concentrations ranging from 10^−5 M to 10^−13 M were chosen. Two identically treated sets of samples were prepared. One set was treated with the test compound alone, whereas to the second set the compound and 10 nM elastase was added followed by a 72 h incubation period at 37° C. and 5% CO2. The proliferation was detected using the MTT assay (ATCC). At the end of the incubation period the MTT reagent was added to all samples for 4h. Lysis of the cells followed by addition of the detergent was done overnight. The formed dye was detected at 570 nm. The proliferation of untreated but otherwise identically handled cells was define as the […].
(§4) The Cytotoxicity assay (Version 2) was performed as above described. Some changes were applied as the assays were performed in an automated fashion and the IC50 values determination was changed. Here the change in metabolic activity of the cells, in percent, was calculated by normalization of the measured values to the absorbance values of medium containing wells without cells (=−100% ) and the absorbance of the DMSO-treated cells (=0% ). AC50 values (activity concentration at -50% o) were determined by means of a 4 parameter Hill-fit using GeneData Screener software.

HT29 [8] = test: Cytotoxicity assay (Version 2), automated, AC50; assay type: cell-based, human; settings: HT29 cells, Version 2, activity concentration at -50%, 4 parameter Hill-fit
Description: as §3, §4

NCI H292 [9] = test: Cytotoxicity assay (Version 2), automated, AC50; assay type: cell-based, human; settings: NCI H292 cells, Version 2, activity concentration at -50%, 4 parameter Hill-fit
Description: as §3, §4

SUM149 [10] = test: Cytotoxicity assay (Version 2), automated, AC50; assay type: cell-based; settings: SUM149 cells, Version 2, activity concentration at -50%, 4 parameter Hill-fit
Description: as §3, §4

| Compound | pIC50 (786-O [1]; compound alone (no elastase)) | pIC50 (786-O [1]; with 10 nM elastase) | pIC50 (HT29 [2]; compound alone (no elastase)) | pIC50 (HT29 [2]; with 10 nM elastase) | pIC50 (NCI H292 [3]; compound alone (no elastase)) | pIC50 (NCI H292 [3]; with 10 nM elastase) | pIC50 (SUM149 [4]; compound alone (no elastase)) | pIC50 (SUM149 [4]; with 10 nM elastase) | ester cleavage in rat plasma [5] | release of free payload in buffer [6] | stability in rat plasma [5] | stability in buffer at pH 7.4 ([6]; buffer pH 7.4, 4-hour assay) | AC50 (786-O [7]; no elastase) | AC50 (786-O [7]; with elastase) | AC50 (HT29 [8]; no elastase) | AC50 (HT29 [8]; with elastase) | AC50 (NCI H292 [9]; no elastase) | AC50 (NCI H292 [9]; with elastase) | AC50 (SUM149 [10]; no elastase) | AC50 (SUM149 [10]; with elastase) |
| --- | --- | --- | --- | --- | --- | --- | --- | --- | --- | --- | --- | --- | --- | --- | --- | --- | --- | --- | --- | --- |
| CCCNC(=O)Nc1cccc(S(=O)(=O)Nc2cccc([C@@H](CC(=O)O)NC(=O)Nc3ccc(NC(=O)NCCOCCOCCOCCC(=O)N[C@@H](CC(=O)OCCCCN(C)C)C(=O)N4CCC[C@H]4C(=O)N[C@H](C(=O)O[C@]4(CC)C(=O)OCc5c4cc4n(c5=O)Cc5c-4nc4ccccc4c5CC)C(C)C)cc3)c2)c1 [Compound C3, (3R)-3-[({4-[({(10S)-10-[(2S)-2-{[(2S)-1-{[(4S)-4,11-Diethyl-3,14-dioxo-3,4,12,14-tetrahydro-1H-pyrano[3′,4′:6,7]indolizino[1,2-b]quinolin-4-yl]oxy}-3-methyl-1-oxobutan-2-yl]carbamoyl}pyrrolidine-1-carbonyl]-2-methyl-8,12-dioxo-7,15,18,21-tetraoxa-2,11-diazatricosan-23-yl}carbamoyl)amino]phenyl}carbamoyl)amino]-3-[3-({3-[(propylcarbamoyl)amino]benzene-1-sulfonyl}amino)phenyl]propanoic acid] | 7.00 to 8.00 | 9.00 to 10.00 | 7.00 to 8.00 | 9.00 to 10.00 | 7.00 to 8.00 | 9.00 to 10.00 | 8.00 to 8.96 | 10.00 to 11.00 | slow ester cleavage and release of the aspartate moiety | No release of free payload is detected | – | – | – | – | – | – | – | – | – | – |
| CCCNC(=O)Nc1cccc(S(=O)(=O)Nc2cccc([C@@H](CC(=O)O)NC(=O)Nc3ccc(NC(=O)NCCOCCOCCOCCC(=O)N[C@@H](CC(=O)OCCCN(C)C)C(=O)N4CCC[C@H]4C(=O)N[C@H](C(=O)O[C@]4(CC)C(=O)OCc5c4cc4n(c5=O)Cc5c-4nc4ccccc4c5CC)C(C)C)cc3)c2)c1 [Compound C2, (3R)-3-[({4-[({(9S)-9-[(2S)-2-{[(2S)-1-{[(4S)-4,11-diethyl-3,14-dioxo-3,4,12,14-tetrahydro-1H-pyrano[3′,4′:6,7]indolizino[1,2-b]quinolin-4-yl]oxy}-3-methyl-1-oxobutan-2-yl]carbamoyl}pyrrolidine-1-carbonyl]-2-methyl-7,11-dioxo-6,14,17,20-tetraoxa-2,10-diazadocosan-22-yl}carbamoyl)amino]phenyl}carbamoyl)amino]-3-[3-({3-[(propylcarbamoyl)amino]benzene-1-sulfonyl}amino)phenyl]propanoic acid] | 7.00 to 8.00 | 9.00 to 10.00 | 8.00 to 8.96 | 9.00 to 10.00 | 7.00 to 8.00 | 9.00 to 10.00 | 9.00 to 10.00 | 10.00 to 11.00 | slow ester cleavage and release of the aspartate moiety | No release of free payload is detected | – | – | – | – | – | – | – | – | – | – |
| CCCNC(=O)Nc1cccc(S(=O)(=O)Nc2cccc([C@@H](CC(=O)O)NC(=O)Nc3ccc(NC(=O)N(C)CCN(C)CCN(C)CC(=O)N[C@@H](CC(N)=O)C(=O)N4CCC[C@H]4C(=O)N[C@H](C(=O)O[C@]4(CC)C(=O)OCc5c4cc4n(c5=O)Cc5c-4nc4ccccc4c5CC)C(C)C)cc3)c2)c1 [Compound B1, (4S)-4,11-diethyl-3,14-dioxo-3,4,12,14-tetrahydro-1H-pyrano[3′,4′:6,7]indolizino[1,2-b]quinolin-4-yl N-{2-[{2-[({4-[({(1R)-2-carboxy-1-[3-({3-[(propylcarbamoyl)amino]benzene-1-sulfonyl}amino)phenyl]ethyl}carbamoyl)amino]phenyl}carbamoyl)(methyl)amino]ethyl} (methyl)amino]ethyl}-N-methylglycyl-L-asparaginyl-L-prolyl-L-valinate] | 7.00 to 8.00 | 9.00 to 10.00 | < 7.00 | 9.00 to 10.00 | 7.00 to 8.00 | 9.00 to 10.00 | 7.00 to 8.00 | 10.00 to 11.00 | – | – | stable | stable | – | – | – | – | – | – | – | – |
| CCCNC(=O)Nc1cccc(S(=O)(=O)Nc2cccc([C@@H](CC(=O)O)NC(=O)Nc3ccc(NC(=O)NCCOCCOCCOCCC(=O)N[C@@H](CCCCNC(=O)CCCC(=O)N(C)CC(=O)N(C)CC(=O)N(C)CC(=O)N(C)CC(=O)N(C)CC(=O)N(C)CC(=O)N(C)CC(=O)N(C)CC(=O)O)C(=O)NCCOCCOCCOCCC(=O)N[C@@H](CC(=O)O)C(=O)N4CCC[C@H]4C(=O)N[C@H](C(=O)O[C@]4(CC)C(=O)OCc5c4cc4n(c5=O)Cc5c-4nc4ccccc4c5CC)C(C)C)cc3)c2)c1 [Compound E4] | – | – | – | – | – | – | – | – | – | – | – | – | 110 to 1000 nM | ≤ 10 nM | 110 to 1000 nM | 11 to 100 nM | 110 to 1000 nM | ≤ 10 nM | 110 to 1000 nM | ≤ 10 nM |
| CCCNC(=O)Nc1cccc(S(=O)(=O)Nc2cccc([C@@H](CC(=O)O)NC(=O)Nc3ccc(NC(=O)NCCOCCOCCOCCC(=O)NCCNC(=O)CC[C@H](NC(=O)CCCC(=O)NCCN(C)CCN(C)CCN(C)CC(=O)N[C@@H](CC(N)=O)C(=O)N4CCC[C@H]4C(=O)N[C@H](C(=O)O[C@]4(CC)C(=O)OCc5c4cc4n(c5=O)Cc5c-4nc4ccccc4c5CC)C(C)C)C(=O)NCCNC(=O)CCOCCOCCOCCNC(=O)Nc4ccc(NC(=O)N[C@H](CC(=O)O)c5cccc(NS(=O)(=O)c6cccc(NC(=O)NCCC)c6)c5)cc4)cc3)c2)c1 [Compound A9] | – | – | – | – | – | – | – | – | – | – | – | – | 110 to 1000 nM | ≤ 10 nM | > 1000 nM | 11 to 100 nM | 110 to 1000 nM | ≤ 10 nM | 110 to 1000 nM | ≤ 10 nM |
| CCCNC(=O)Nc1cccc(S(=O)(=O)Nc2cccc([C@@H](CC(=O)O)NC(=O)Nc3ccc(NC(=O)N(C)CC(=O)N(C)CC(=O)N(C)CC(=O)N(C)CC(=O)N[C@@H](CC(=O)O)C(=O)N4CCC[C@H]4C(=O)N[C@H](C(=O)O[C@]4(CC)C(=O)OCc5c4cc4n(c5=O)Cc5c-4nc4ccccc4c5CC)C(C)C)cc3)c2)c1 [Compound B6] ({X1-CO}-[Sar][Sar][Sar][Sar]DPV-{Camptothecin(7-Et)}) | – | – | – | – | – | – | – | – | – | – | – | – | 110 to 1000 nM | ≤ 10 nM | > 1000 nM | 11 to 100 nM | 110 to 1000 nM | ≤ 10 nM | 110 to 1000 nM | ≤ 10 nM |
